Measurements published in PMC10411625, “Rationally designed stapled peptides allosterically inhibit PTBP1–RNA-binding” (Chemical Science, 2023).
pKi: −log10 of the molar value.

Biological target: T1, PTBP1 RRM1 (Homo sapiens, UniProt P26599)
T1 construct: (G41-A163); His tag; made in house; host or cells: E. coli BL21 DE3 RIL
T1 sequence (P26599 41-163): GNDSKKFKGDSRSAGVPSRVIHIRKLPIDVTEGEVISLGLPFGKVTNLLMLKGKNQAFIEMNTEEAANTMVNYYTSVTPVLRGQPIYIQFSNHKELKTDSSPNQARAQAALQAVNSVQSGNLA
Experiment: Competitive fluorescence polarization assay, RRM1 and RNA-2
Format: binding
Conditions: Fig. 3C; competitive FP with RNA-2; read-out: P-6 Ki, construct RRM1
Excerpt: Different PTBP1 variants were used to investigate the mode of action of P-6via competitive FP experiments. As illustrated in Fig. 1A there is a short linker between RRM1 and the α3-helix which also makes contacts with the RNA. It is possible that when P-6 occupies the binding site of the helix, this linker is displaced disrupting its interactions with the RNA and lowering the RNA-binding affinity. To test this, we measured whether P-6 could inhibit RRM1 RNA-binding. […] Therefore, it seems most likely that P-6 inhibits RRM12 via disturbing the coordinated RNA-binding of the two RRM domains. As this is possibly regulated by the helix we tested if the peptide could inhibit RRM12–L151G where the role of the helix is reduced (Fig. 3C and S5 ^†). […] These findings further support a mode of action where P-6 disturbs coordinated RNA-binding by RRM1 and 2. […]
size exclusion chromatography (Superdex 75 16/60 or 26/60) with SEC buffer (50 mM Tris, 200 mM NaCl). Protein homogeneity was assessed by the size exclusion chromatogram and purity was checked by SDS-PAGE analysis to be >= 90%.
The gene encoding for SRSF1-RRM12 (1-195) was subcloned into pOPIN-His expression vector and expressed in E. coli BL21 (DE3). […]
Fluorescence polarization assay with PTBP1 […]

CC(=O)N[C@@H](CC(N)=O)C(=O)N[C@@H](CCC(N)=O)C(=O)N[C@@]1(C)CCCC=CCCCC2(CCCC=CCCC[C@](C)(C(=O)N[C@H](C(=O)N[C@@H](CC(N)=O)C(N)=O)C(C)C)NC(=O)[C@H](CCC(N)=O)NC(=O)[C@H](CC(C)C)NC(=O)[C@H](C)NC2=O)NC(=O)[C@H](CCC(N)=O)NC(=O)[C@H](C)NC(=O)[C@H](CCCNC(=N)N)NC1=O (stereo partly shown) [Peptide P-6] gave a pKi of under 3.12.
